{"source": "paper PMC11939470", "about": "“The Cyclic Antimicrobial Peptide C-LR18 Has Enhanced Antibacterial Activity, Improved Stability, and a Longer Half-Life Compared to the Original Peptide” (Antibiotics, 2025)", "key": {"[1]": {"test": "Half-life of peptides in plasma in vitro (HPLC)", "type": "in vitro ADME, rat", "description": "Half-life of peptides in vitro was determined using HPLC according to the method described in [30]. Blood from SPF SD rats was collected in a centrifuge tube containing 0.5% heparin sodium via cardiac sampling. Plasma was separated and stored at −80 °C until analyzed. The plasma samples with final concentrations of 25 μg/mL, 50 μg/mL, 100 μg/mL, 200 μg/mL, 400 μg/mL, and 750 μg/mL were prepared by mixing 1500 μg/mL of antimicrobial peptides with rat plasma, then adding acetonitrile containing 0.1% TFA at 1/1 volume. After vortexing for 30 s, the samples were centrifuged at 14,000 r/min for 20 min, the supernatant was aspirated, sterilized using a 0.22 μm sterilization filter, and 30 μL of the sample was used for HPLC determination. After HPLC detection, the value of the chromatographic peak area was counted, the mathematical relationship between the sample concentration and the chromatographic peak area was calculated, and the standard curve was drawn. The standard curve was regressio-calculated by linear fitting Y = aX + b and weighted least square method (w = 1/c2).\nThe 1 mg/mL peptide solution was mixed with SD rat plasma and incubated in a water bath at 37 °C. Samples were taken at different time points of 0, 20, 30, 40, 60, 80, 100, 120, 140, 160, 180, 200, 210, 240, 300, 400, 500, and 600 min. After vortexing for 30 s, the samples were centrifuged at 14,000 r/min for 20 min, the supernatant was aspirated and sterilized using a 0.22 μm sterilization filter, and 30 μL of the sample was used for HPLC determination. The experiment was repeated three times. The peak area measured by HPLC was substituted into the standard curve obtained by the above experiment, the peptide concentration at different time points was calculated, and the half-life of peptides in plasma was calculated."}, "[2]": {"system": "E. coli ATCC25922", "test": "Stability in serum, read out by MIC assay", "type": "in vitro ADME", "description": "(§1) The MIC test was performed using the method recommended by the National Committee for Clinical Laboratory Standards (NCCLS) Standards and Guidelines, and the method was modified according to the characteristics of antimicrobial peptides. The bacteria were cultured at 37 °C for 16 h, and the microbial suspension was diluted to a final concentration of 5 × 10^5 CFU/mL. Then, 50 µL of bacterial solution was mixed with 50 µL of MHB containing different concentrations peptides (0.5–256 µM) in a 96-well plate. […] The assays were performed three times. Geometric mean MIC represents the average MIC of the peptide against all the tested strains.\n(§2) The stability of LR18 and C-LR18 in protease, serum, and gastrointestinal conditions was determined using MIC assay, as described previously.\nTo detect the stability of peptides in serum, the peptides were mixed with various concentrations of fetal bovine serum and mouse serum solutions, and the final concentrations of serum were 6.25%, 12.5%, 25%, and 50%. The MIC of peptides against E. coli ATCC25922 in the presence of different concentrations of serum was determined. Subsequent steps were the same as for the MIC assay. The assays were performed three times."}, "[3]": {"system": "E. coli ATCC25922", "test": "Bactericidal kinetics assay", "type": "cell-based", "settings": "1 × MIC and 2 × MIC, 1 × 10^6 CFU/mL, 37 °C, dose-dependent, Figure 1f", "description": "Bactericidal kinetics assay was performed according to the method outlined by Zhang et al.. […] The mixed solutions were incubated in a shaker at 37 °C. A total of 100 μL of the above mixed solution was absorbed every 20 min and diluted with sterile MH liquid medium, and then 50 μL of bacterial solution was aspirated and evenly coated on the solid MH plate. After incubation at 37 °C for 16–18 h, the bacteria colonies on the plate were counted. The bactericidal kinetics curves of LR18 and C-LR18 against E. coli ATCC25922 were plotted. The experiment was repeated three times."}, "[4]": {"system": "Gram-negative bacteria", "test": "Geometric mean MIC (MBC) and therapeutic index", "type": "cell-based", "settings": "average MIC against the tested Gram-negative strains", "description": "as §1\nMBC detection was performed according to the method of Taiyari et al.. According to the MIC results, 50 µL of bacterial cultures was absorbed from the minimum inhibitory concentration hole and the three previous holes, respectively; transferred to a new MH solid medium; and incubated in an incubator at 37 °C overnight, and the bacteria on the plate were counted. The concentration of antibacterial peptide that kills 99.99% of the tested bacteria is defined as the minimum bactericidal concentration (MBC) of the peptide. The experiment was repeated three times. Geometric mean MBC represents the average […] of the peptide against all the tested strains."}, "[5]": {"system": "E. coli ATCC25922", "test": "Impact of temperature and pH on MIC", "type": "physicochemical", "settings": "after 100 °C for 30 min, acid treatment (pH4) 1 h, alkali treatment (pH10) 1 h", "description": "as §1\nThe impact of temperature on peptides’ antimicrobial activity was also tested."}, "[6]": {"system": "E. coli ATCC25922", "test": "Stability in protease, read out by MIC assay", "type": "in vitro ADME", "settings": "1 mg/mL papain for 1 h", "description": "as §1, §2\nTo detect the stability of peptides in protease, the peptides were diluted in 1 mg/mL of trypsin, pepsin, papain, and protease K, respectively, and incubated at 37 °C for 1 h. Then, the protease in the peptide solutions was inactivated in a water bath at 60 °C for 30 min. Subsequent steps were the same as for the MIC assay. The assays were performed three times."}, "[7]": {"system": "genomic DNA of E. coli ATCC25922", "test": "DNA binding assay (gel retardation)", "settings": "100 ng genomic DNA, 1–512 µM peptide, 37 °C 60 min, 0.8% agarose gel", "description": "The DNA binding test was performed according to gel retardation experiments described previously. Firstly, genomic DNA was extracted from E. coli ATCC25922 using a DNA extraction kit. A total of 100 ng of genomic DNA was mixed with 1–512 µM peptide in a binding buffer (50 µg/mL of BSA, 1 mM of ethylene diamine tetra-acetic acid, 20 mM of KCl, 10 mM of Tris-HCl (pH = 8.0), 5% glycerol, and 1 mM of dithiothreitol) and incubated at 37 °C for 60 min. Subsequently, the samples were examined using 0.8% agarose gel electrophoresis. Observation and photography were performed in the UVP gel imaging system, and the electrophoresis mobility was analyzed."}, "[8]": {"system": "E. coli ATCC25922", "test": "Stability in artificial gastric and intestinal fluid, read out by MIC assay", "type": "in vitro ADME", "description": "as §1, §2\nThe stability in gastrointestinal conditions was also determined. The peptides were diluted in artificial gastric fluid and artificial intestinal fluid, digested in water bath at 37 °C for 0.5 and 1 h, and then inactivated in water bath at 60 °C for 30 min. Then, the PH of the solution was adjusted to 7.0 with 10% Na2CO3. Subsequent steps were the same as for the MIC assay. The assays were performed three times."}}, "note": "Where a SMILES comes first, the peptide text is derived from it. Bridges are numbered along the chain shown (N, C = ends).", "data": [{"smiles": "CC(C)C[C@@H]1NC(=O)[C@H](CCCNC(=N)N)NC(=O)[C@H](CCCNC(=N)N)NC(=O)[C@H](CC(C)C)NC(=O)[C@H](CC(C)C)NC(=O)[C@H](CCCNC(=N)N)NC(=O)[C@H](CC(C)C)NC(=O)[C@@H]2CCCN2C(=O)[C@H](CCCNC(=N)N)NC(=O)[C@H](CCCNC(=N)N)NC(=O)[C@@H]2CCCN2C(=O)[C@H](CC(C)C)NC(=O)[C@H](CCCNC(=N)N)NC(=O)[C@H](CC(C)C)NC(=O)[C@H](CC(C)C)NC(=O)[C@H](CCCNC(=N)N)NC(=O)[C@H](CCCNC(=N)N)NC(=O)[C@H](CC(C)C)NC(=O)[C@@H](N)CSSC[C@@H](C(=O)O)NC1=O", "note": "[C-LR18] (H-CLRRLLRLPRRPLRLLRRLC-OH; disulfide 1-20; N-terminus and C-terminus assumed)", "values": [{"measurement": "half-life", "setting": "[1]; 1 mg/mL peptide solution mixed with SD rat plasma (heparin), 37 °C water bath, 0–600 min, HPLC, repeated three times", "result": "3.49 ± 0.337", "unit": "h"}, {"measurement": "peptide degraded in plasma", "setting": "[1]; after 210 min, rat plasma 37 °C, HPLC", "result": "More than half"}, {"measurement": "peptide detected in plasma samples", "setting": "[1]; after 600 min, rat plasma 37 °C, HPLC", "result": "no C-LR18 could be detected"}, {"measurement": "half-life in rat plasma relative to LR18", "setting": "[1]; in vitro rat plasma", "result": 3.37, "unit": "times"}, {"measurement": "prolongation of half-life in rat plasma versus LR18", "setting": "[1]; in vitro rat plasma", "result": 2.4555, "unit": "h"}, {"measurement": "increase of MIC", "setting": "[2]; 50% serum or artificial gut solution for 30 min (abstract)", "result": 4, "unit": "fold"}, {"measurement": "increase of MIC", "setting": "[2]; serum concentration 50%", "result": 4, "unit": "times"}, {"measurement": "time to complete killing of E. coli ATCC25922", "setting": "[3]", "result": "≤ 100", "unit": "min"}, {"measurement": "Geometric mean MIC", "setting": "[4]", "result": 2, "unit": "µM"}, {"measurement": "expansion of MIC", "setting": "[5]", "result": 2, "unit": "times"}, {"measurement": "change of antibacterial activity after papain", "setting": "[6]", "result": "remained unchanged"}, {"measurement": "concentration exhibiting DNA-binding ability", "setting": "[7]", "result": 64, "unit": "µM"}, {"measurement": "increase of MIC", "setting": "[8]; artificial gastric fluid 30 min", "result": 8, "unit": "times"}, {"measurement": "increase of MIC", "setting": "[8]; artificial intestinal fluid 30 min", "result": 4, "unit": "times"}, {"measurement": "increase of MIC", "setting": "[8]; artificial intestinal fluid 60 min", "result": 16, "unit": "times"}]}]}
